{"source": "patent US20030064989A1", "about": "“Inhibitors of cell proliferation, angiogenesis, fertility, and muscle contraction” (priority 2001, published 2003)", "key": {"hamster infundibula": {"tested_on": "hamster infundibula", "experiment": "Infundibular muscle contraction assay", "format": "cell-based, golden hamsters (Mesocricetus auratus)", "from_the_text": "The infundibular muscle contraction assay was developed after observing consistent infundibular contractions that slowed or ceased after treatment with mainstream smoke solutions. Perfusion chambers containing infundibula were placed on a Wild stereoscopic microscope (model BD-HF) and viewed at 50×. A video image was sent from the microscope to a Dell computer using a Hitachi camera and the infundibular contractions could be observed and measured on the computer monitor. As the infundibulum contracted, the image shown on the monitor moved a measurable distance. This distance was measured during each contraction by placing a ruler against the computer monitor. These values (in centimeters) were then converted to actual distance by capturing an image of a ruler under the microscope and converting the measured values to micrometers. Frequency was also measured by observing the contracting infundibula on the computer monitor. The number of times the infundibulum contracted per minute was recorded. Each parameter was measured four to six times per infundibulum per treatment group.\nFor the ciliary beat frequency, oocyte pickup rate, and infundibular muscle contraction graphs, purified 3-ethylpyridine was purchased and dissolved in EBSS. […]"}, "[1]": {"tested_on": "hamster oviduct explants (infundibulum)", "experiment": "Ciliary beat frequency assay", "format": "cell-based, golden hamsters (Mesocricetus auratus)", "description": "Ciliary beat frequency was measured using hamster oviduct explants in an in vitro assay (Knoll et al., 1998, supra; Talbot et al., 1998, supra). Perfusion chambers containing infundibula were placed on a Wild stereoscopic microscope (model BD-HF) and viewed at 50×. A video image was sent from the microscope to a Dell computer using a Hitachi camera and recorded using a VCR onto a Super VHS videotape. To measure cilia beat frequency the videotape was played back frame-by-frame. The VCR recorded 15 frames per second. Each frame represented a fraction of a cycle; the completion of a cycle was equivalent to one beat. Number of frames per cycle (or frames per beat) were measured and then converted into beats per second. Ten measurements were made for each infundibulum for each treatment group. Recordings were made for 40-60 seconds per region, which ensured an adequate amount of data for analysis.\nFor the ciliary beat frequency, oocyte pickup rate, and infundibular muscle contraction graphs, purified 3-ethylpyridine was purchased and dissolved in EBSS. A hamster infundibulum was exposed to a dose range of 9.33 e-7 to 9.33 e-4 mM (four dose groups total) for five minutes and oocyte pickup rate, ciliary beat frequency, and infundibular contraction were measured. […]"}, "[2]": {"tested_on": "hamster oviduct explants (infundibulum)", "experiment": "Oocyte pickup rate (OPR) assay", "format": "cell-based, golden hamsters (Mesocricetus auratus)", "description": "Hamsters were injected with 25 I.U. of human chorionic gonadotropin (hCG) on the evening of Day 4 of their estrous cycle. On the day of the experiment, approximately 12 hours after the injection of hCG, hamsters were sacrificed using CO2, and oviducts and ovaries were removed. During dissection the oviduct and ovary were separated. Ovaries were isolated in EBSS-HA and expanded follicles were poked with a dissecting needle to release the oocyte cumulus complexes (OCCs). Oocyte cumulus complexes were transferred to a fresh Petri dish and placed in EBSS-HA. The infundibulum was cut from the oviduct leaving part of the ampulla attached to function as a handle. […]\nOocyte cumulus complex pick-up rate was measured using hamster oviduct explants in an in vitro assay (Huang et al., 1997, supra; Knoll et al., 1998, supra; Talbot et al., 1998, supra). […] An oocyte cumulus complex was placed at the base of the infundibulum and the length of time needed for the complex to traverse a defined path to the ostium was recorded. […] Then the test smoke solution or chemical was added to the perfusion chamber and allowed to incubate for five minutes after which pickup-rate was measured again. […] Oocyte pickup-rate was measured again and this rate was recorded as the “recovery” measurement. […]"}, "[3]": {"tested_on": "chick chorioallantoic membrane (CAM)", "experiment": "Chick chorioallantoic membrane (CAM) assay, CAM area", "description": "The chick chorioallantoic membrane (CAM) assay is perhaps the most widely used assay for screening anti-angiogenic or growth inhibitory compounds (see, e.g. Ribatti et al., Int. J. Dev. Biol. 40:1189-1197 (1996)). Cell proliferation and angiogenesis were evaluated by measuring CAM area and BrdU labeling using the CAM assay as modified by Melkonian et al., J. Exp. Zool. (2001), in review. Fertilized chicken eggs were purchased from Hy-Line International (Lakeview, CA), then incubated at 37° C. at 85-90% relative humidity throughout the experiment. Experiments were done to evaluate cell proliferation, angiogenesis, and vascularization in CAMs between days 5 and 6 after fertilization. Albumin (2.5-3.0 cc) was removed on the fourth day after fertilization to drop the embryo away from the shell. Windows were then made in shells, and sealed with transparent tape to allow subsequent access to the CAM for experimental treatment. 200 μl of either EBSS-H or different concentrations of pure chemicals were added to the surface of each CAM at 10 AM on the fifth day after fertilization. A sham control group in which the window was opened and resealed was also included in each experiment. In all cases, the following five concentrations of test reagents were used, 5×10^−3 M, 5×10^−5 M, 5×10^−7M, 5×10^−9 M and 5×10^−11M. For 2-ethylpyridine and 3-ethylpyridine additional concentrations of 5×10^−12M, 5×10^−13M, 5×10^−14 M and 5×10^−15 M were used. For nicotine and nornicotine, concentrations of 5×10^−4 M, 5×10^−6 M, 5×10^−8 M and 5×10^−10 M were also used. Development was terminated at 10 AM on the sixth day after fertilization by fixing the embryo and the CAM with 3% glutaraldehyde in 0.1M cacodylate buffer (pH 7.4) for 2 hours at room temperature. A small volume of fixative was also injected under the CAM. The CAMs were later dissected from eggs, post-fixed in the same fixative for 24 hours at room temperature, then thoroughly rinsed in PBS.\nAt least 6 CAMs were used in each control and experimental group. Parameters which measure aspects of cell proliferation, angiogenesis, and vacularization were quantified for each CAM. These parameters include: (1) for cell proliferation—CAM area, BrdU labeling of nuclei; (2) for angiogenesis—blood vessel pattern, blood vessel area, blood vessel diameter, and blood vessel branching; (3) for vascularization—density of angiogenic clusters. The area of each CAM was measured by placing the CAMs in PBS in a Petri dish under a Wild-M5A dissecting microscope (Max ERB instrument Co., Burbank, CA), then measuring the longest and shortest length of each CAM with a ruler to the precision of 0.5 mm. The data were recorded into Excel spreadsheet. CAM area was calculated using the formula:\nwhere A=longest length, B=longest width, π=3.14.\nMeans and standard deviations were then calculated for each control and treatment group. The treated group means were used to compare with control means to determine the effect of each chemical on CAM growth.\nOn the fifth day after fertilization, either EBSS-H or different concentrations of test chemicals were added to each CAM. A sham group in which windows were opened and resealed without adding any solution was also included to determine if the vehicle EBSS-H had any effect on CAM area. Development was terminated 24 hours later, and CAMs were measured as described in Materials and Methods."}, "[4]": {"conditions": "five minutes, single infundibulum"}, "[5]": {"conditions": "CAM area, day 5-6 CAMs, 24 hours"}}, "note": "Values joined by “and” are separate entries in the source; they are usually repeats but may differ in a detail not shown here. Equal values may be shown once."}
{"smiles": "CCc1cccnc1", "note": "[3-ethylpyridine]", "values": [{"measurement": "concentration at which infundibular muscle contraction rate was significantly inhibited", "setting": "hamster infundibula; [4]", "value": "9.33 e-7 mM"}, {"measurement": "reversibility of effect on contraction rate after the recovery period", "setting": "hamster infundibula; recovery period", "value": "partially reversible"}, {"measurement": "concentration at which ciliary beat frequency was significantly inhibited", "setting": "[1]; [4]", "value": "9.33 e-7 mM"}, {"measurement": "CBF during the recovery period", "setting": "[1]; recovery period", "value": "continued to decrease"}, {"measurement": "concentration at which oocyte pickup rate was significantly inhibited", "setting": "[2]; [4]", "value": "9.33 e-7 mM"}, {"measurement": "reversibility of effect on OPR after the recovery period", "setting": "[2]; recovery period", "value": "partially reversible"}, {"measurement": "lowest effective dose lower than that of the single pyridine ring", "setting": "[3]; CAM area", "value": 10, "unit": "million"}, {"measurement": "LOAEL", "setting": "[3]; [5]", "value": "5.36e-10", "unit": "mg/mL"}, {"measurement": "LOAEL (Molar)", "setting": "[3]; [5]", "value": 5, "unit": "pM"}, {"measurement": "NOAEL (Molar)", "setting": "[3]; [5]", "value": 0.5, "unit": "pM"}, {"measurement": "minimal effective concentration", "setting": "[3]; Gallus gallus, 24 h, read-out: lowest effective dose on CAM area", "value": "5e-06 µM and 5.4e-07 µg/mL"}]}
